Like-named read-outs stand apart in the source and are kept apart here.
What was measured:
[1] = system: porcine coronavirus PEDV; assay: PEDV infection of Vero E6 cells, antiviral activity by CPE
[2] = system: VERO E6 cells; assay: cytotoxicity of the compounds on Vero E6 cells
[3] = system: human respiratory coronavirus OC43; assay: HCT-8 cells infected with human respiratory coronavirus OC43, antiviral effect (CPE, WST-1); format: cell-based
[4] = system: VERO E6 cells

Row | Compound | visual scores of the CPE, effect against PEDV infection ([1]; FIG. 1, 3 days post infection, PEDV-infected Vero E6 cells, low concentrations) | low concentration with protective effect against PEDV infection (below the cytotoxic concentrations) ([1]; Vero E6 cells, medium with 2% FBS, speculated, to be better sustained) [%] | PEDV induced cytotoxicity ([1]; medium without FBS, high concentrations of the compound) | cytotoxicity, effect of low concentration of FBS ([2]; medium supplemented with 2% FBS) | cytotoxicity ([2]; medium without FBS) | time for which a significant effect was sustained ([3]; after 2 hours of treatment exposure) [days] | concentration with optimal effect in protecting cells from coronaviral infection ([3]; overall conclusion of the coronavirus experiments) [%] | cytotoxicity [4] | cytotoxicity, effect of low concentration of FBS [4]
1 | OC[C@@H](O)[C@H](O)[C@@H](O)CO [xylitol] | protective effects | ≤ 3 | higher | significantly decreased | very high | 4 | 0.5 |  | 
2 | propolis |  |  |  |  |  |  |  | very high | significantly decreased

— patent publication US20240115622A1, “FORMULATION FOR THE PREVENTION AND/OR TREATMENT OF COVID-19” (priority 2022, published 2024)
